Laboratory results published in patent US6358885B1, “Substituted phenylheterocyclic herbicides” (Mississippi State University, priority 1992, dated 2002).

Legend:
[1] = tested on: blackgrass; assay: Test C preemergence/postemergence greenhouse plant response rating 0 to 100; format: in vivo, Alopecurus myosuroides
Method in brief: (§1)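 Compounds in non-phytotoxic solvent applied preemergence to sandy loam one day after planting, postemergence at the 1–4 leaf stage, or to ~2.5 cm floodwater over silt loam.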

[2] = tested on: giant foxtail; assay: Test B preemergence/postemergence greenhouse plant response rating 0 to 10; format: in vivo, Setaria faberii; conditions: for Plant response rating, Giant foxtail: 0 to 10 scale
Method in brief: (§2)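 Test chemicals, dissolved in a non-phytotoxic solvent, were applied to soil at planting and, at the same time, over foliage of seedlings at the one to four leaf stage.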

[3] = tested on: cheatgrass; assay: as above; format: in vivo, Bromus secalinus; conditions: for Plant response rating, Cheatgrass: 0 to 10 scale
Method in brief: as §2

[4] = tested on: rape; assay: Test C preemergence/postemergence greenhouse plant response rating 0 to 100; format: in vivo, Brassica napus; conditions: for Plant response rating, Rape: 125 g/ha, 0 to 100 scale
Method in brief: as §1

[5] = tested on: cocklebur; assay: Test B preemergence/postemergence greenhouse plant response rating 0 to 10; format: in vivo, Xanthium pensylvanicum; conditions: for Plant response rating, Cocklebur: 0 to 10 scale
Method in brief: as §2

[6] = tested on: soybean; assay: Test C preemergence/postemergence greenhouse plant response rating 0 to 100; format: in vivo, Glycine max; conditions: for Plant response rating, Soybean: 125 g/ha, 0 to 100 scale
Method in brief: as §1

[7] = tested on: bedstraw; assay: Test B preemergence/postemergence greenhouse plant response rating 0 to 10; format: in vivo, Galium aparine; conditions: for Plant response rating, Bedstraw: 0 to 10 scale
Method in brief: as §2

[8] = tested on: barley; assay: Test C preemergence/postemergence greenhouse plant response rating 0 to 100; format: in vivo, Hordeum vulgare; conditions: for Plant response rating Barley Igri: 125 g/ha, 0 to 100 scale
Method in brief: as §1

[9] = tested on: velvetleaf; assay: Test B preemergence/postemergence greenhouse plant response rating 0 to 10; format: in vivo, Abutilon theophrasti; conditions: for Plant response rating, Velvetleaf: 0 to 10 scale
Method in brief: as §2

[10] = tested on: rice; assay: Test C flood test plant response rating 0 to 100; format: in vivo, Oryza sativa
Text: The compounds evaluated in this test were formulated in a non-phytoxic solvent and applied to the soil surface before plant seedlings emerged (preemergence application), to water that covered the soil surface (flood application), and to plants that were in the one-to-four leaf stage (postemergence application). A sandy loam soil was used for the preemergence and postemergence tests, while a silt loam soil was used in the flood test. Water depth was approximately 2.5 cm for the flood test and was maintained at this level for the duration of the test. Plant species in the preemergence and postemergence tests consisted of barley (Hordeum vulgare), bedstraw (Galium aparine), blackgrass (Alopecurus myosuroides), chickweed (Stellaria media), corn (Zea mays), cotton (Gossypium hirsutum), crabgrass (Digitaria sanguinalis), downy brome (Bromus tectorum), giant foxtail (Setaria faberii), lambsquarters (Chenopodium album), morningglory (Ipomoea hederacea), pigweed ([…]), rape (Brassica napus), ryegrass (Lolium multiflorum), sorghum (Sorghum bicolor), soybean (Glycine max), speedwell (Veronica persica), sugar beet (Beta vulgaris), velvetleaf (Abutilon theophrasti), wheat (Triticum aestivum), wild buckwheat (Polygonum convolvulus), and wild oat (Avena fatua). All plant species were planted one day before application of the compound for the preemergence portion-of this test. Plantings of these species were adjusted to produce plants of appropriate size for the post-emergence portion of the test. […] All plant species were grown using normal greenhouse practices. Visual evaluations of injury expressed on treated plants, when compared to untreated controls, were recorded approximately fourteen to twenty one days after application of the test compound. […] A dash (-) response means no test result.

CCOCOc1cc(-c2nn3c(c2Cl)CCCC3)c(F)cc1Cl [Compound 59]
Plant response rating (0 to 100), Blackgrass ([1]; Rate 8 g/ha, POSTEMERGENCE): 30 | Plant response rating (0 to 100), Blackgrass ([1]; Rate 8 g/ha, PREEMERGENCE): 20 | Plant response rating (0 to 100), Blackgrass ([1]; Rate 31 g/ha, POSTEMERGENCE): 50 | Plant response rating (0 to 100), Blackgrass ([1]; Rate 31 g/ha, PREEMERGENCE): 50 | Plant response rating, Giant foxtail ([2]; POSTEMERGENCE, Rate 50 g/ha): 6 | Plant response rating, Giant foxtail ([2]; PREEMERGENCE, Rate 50 g/ha): 9 | Plant response rating (0 to 10 scale), Giant foxtail ([2]; PREEMERGENCE, Rate 200 g/ha): 10 | Plant response rating, Giant foxtail ([2]; Rate 200 g/ha, POSTEMERGENCE): 7 | Plant response rating, Cheatgrass ([3]; POSTEMERGENCE, Rate 50 g/ha): 4 | Plant response rating, Cheatgrass ([3]; PREEMERGENCE, Rate 50 g/ha): 4 | Plant response rating (0 to 10 scale), Cheatgrass ([3]; PREEMERGENCE, Rate 200 g/ha): 5 | Plant response rating, Cheatgrass ([3]; Rate 200 g/ha, POSTEMERGENCE): 6 | Plant response rating, Rape ([4]; POSTEMERGENCE): 100 | Plant response rating (0 to 100), Rape ([4]; POSTEMERGENCE, Rate 2 g/ha): 20 | Plant response rating, Rape ([4]; PREEMERGENCE): 40 | Plant response rating (0 to 100), Rape ([4]; PREEMERGENCE, Rate 2 g/ha): 0 | Plant response rating (0 to 100), Rape ([4]; Rate 8 g/ha, POSTEMERGENCE): 40 | Plant response rating (0 to 100), Rape ([4]; Rate 8 g/ha, PREEMERGENCE): 0 | Plant response rating (0 to 100), Rape ([4]; Rate 31 g/ha, POSTEMERGENCE): 70 | Plant response rating (0 to 100), Rape ([4]; Rate 31 g/ha, PREEMERGENCE): 0 | Plant response rating, Cocklebur ([5]; POSTEMERGENCE, Rate 50 g/ha): 7 | Plant response rating, Cocklebur ([5]; PREEMERGENCE, Rate 50 g/ha): 0 | Plant response rating (0 to 10 scale), Cocklebur ([5]; PREEMERGENCE, Rate 200 g/ha): 8 | Plant response rating, Cocklebur ([5]; Rate 200 g/ha, POSTEMERGENCE): 10 | Plant response rating, Soybean ([6]; POSTEMERGENCE): 70 | Plant response rating (0 to 100), Soybean ([6]; POSTEMERGENCE, Rate 2 g/ha): 30 | Plant response rating, Soybean ([6]; PREEMERGENCE): 0 | Plant response rating (0 to 100), Soybean ([6]; PREEMERGENCE, Rate 2 g/ha): 0 | Plant response rating (0 to 100), Soybean ([6]; Rate 8 g/ha, POSTEMERGENCE): 50 | Plant response rating (0 to 100), Soybean ([6]; Rate 8 g/ha, PREEMERGENCE): 0 | Plant response rating (0 to 100), Soybean ([6]; Rate 31 g/ha, POSTEMERGENCE): 60 | Plant response rating (0 to 100), Soybean ([6]; Rate 31 g/ha, PREEMERGENCE): 0 | Plant response rating, Bedstraw ([7]; POSTEMERGENCE, Rate 50 g/ha): 10 | Plant response rating, Bedstraw ([7]; PREEMERGENCE, Rate 50 g/ha): 8 | Plant response rating (0 to 10 scale), Bedstraw ([7]; PREEMERGENCE, Rate 200 g/ha): 10 | Plant response rating, Bedstraw ([7]; Rate 200 g/ha, POSTEMERGENCE): 8 | Plant response rating Barley Igri ([8]; POSTEMERGENCE): 60 | Plant response rating (0 to 100), Barley Igri ([8]; POSTEMERGENCE, Rate 2 g/ha): 30 | Plant response rating Barley Igri ([8]; PREEMERGENCE): 10 | Plant response rating (0 to 100), Barley Igri ([8]; PREEMERGENCE, Rate 2 g/ha): 0 | Plant response rating (0 to 100), Barley Igri ([8]; Rate 8 g/ha, POSTEMERGENCE): 40 | Plant response rating (0 to 100), Barley Igri ([8]; Rate 8 g/ha, PREEMERGENCE): 0 | Plant response rating (0 to 100), Barley Igri ([8]; Rate 31 g/ha, POSTEMERGENCE): 50 | Plant response rating (0 to 100), Barley Igri ([8]; Rate 31 g/ha, PREEMERGENCE): 0 | Plant response rating, Velvetleaf ([9]; POSTEMERGENCE, Rate 50 g/ha): 8 | Plant response rating, Velvetleaf ([9]; PREEMERGENCE, Rate 50 g/ha): 10 | Plant response rating (0 to 10 scale), Velvetleaf ([9]; PREEMERGENCE, Rate 200 g/ha): 10 | Plant response rating, Velvetleaf ([9]; Rate 200 g/ha, POSTEMERGENCE): 10 | Plant response rating (0 to 100), Rice Japonica ([10]; POSTEMERGENCE section, flood test, Rate 2 g/ha): 0 | Plant response rating (0 to 100), Rice Japonica ([10]; Rate 8 g/ha, under POSTEMERGENCE head (flood test species)): 0 | Plant response rating (0 to 100), Rice Japonica ([10]; Rate 31 g/ha, under POSTEMERGENCE head (flood test species)): 0 | Plant response rating Rice Japonica ([10]; flood test species listed under POSTEMERGENCE, 125 g/ha, 0 to 100 scale): 40
